From US8278345B2, “Inhibitors of glutaminyl cyclase” (Probiodrug AG, priority 2006, dated 2012)

molecular target: hQC (Homo sapiens, UniProt Q16769); assay: Inhibitor assay for glutaminyl cyclase activity (fluorometric, H-Gln-βNA / H-Gln-AMC); format: biochemical; settings: compound from preparative synthesis, purified; read-out: IC50 hQC
Procedure: All measurements were performed with a BioAssay Reader HTS-7000Plus for microplates (Perkin Elmer) at 30° C. QC activity was evaluated fluorometrically using H-Gln-βNA. The samples consisted of 0.2 mM fluorogenic substrate, 0.25 U pyroglutamyl aminopeptidase (Unizyme, Hørsholm, Denmark) in 0.2 M Tris/HCl, pH 8.0 containing 20 mM EDTA and an appropriately diluted aliquot of QC in a final volume of 250 μl. Excitation/emission wavelengths were 320/410 nm. The assay reactions were initiated by addition of glutaminyl cyclase. QC activity was determined from a standard curve of β-naphthylamine under assay conditions. One unit is defined as the amount of QC catalyzing the formation of 1 μmol pGlu-βNA from H-Gln-βNA per minute under the described conditions.
In a second fluorometric assay, QC activity was determined using H-Gln-AMC as substrate. Reactions were carried out at 30° C. utilizing the NOVOStar reader for microplates (BMG labtechnologies). The samples consisted of varying concentrations of the fluorogenic substrate, 0.1 U pyroglutamyl aminopeptidase (Qiagen) in 0.05 M Tris/HCl, pH 8.0 containing 5 mM EDTA and an appropriately diluted aliquot of QC in a final volume of 250 μl. Excitation/emission wavelengths were 380/460 nm. The assay reactions were initiated by addition of glutaminyl cyclase. QC activity was determined from a standard curve of 7-amino-4-methylcoumarin under assay conditions. The kinetic data were evaluated using GraFit sofware.
For inhibitor testing, the sample composition was the same as described above, except of the putative inhibitory compound added. For a rapid test of QC-inhibition, samples contained 4 mM of the respective inhibitor and a substrate concentration at 1 KM. For detailed investigations of the inhibition and determination of Ki-values, influence of the inhibitor on the auxiliary enzymes was investigated first. In every case, there was no influence on either enzyme detected, thus enabling the reliable determination of the QC inhibition. The inhibitory constant was evaluated by fitting the set of progress curves to the general equation for competitive inhibition using GraFit software.

Sequence of hQC (Q16769 29-361): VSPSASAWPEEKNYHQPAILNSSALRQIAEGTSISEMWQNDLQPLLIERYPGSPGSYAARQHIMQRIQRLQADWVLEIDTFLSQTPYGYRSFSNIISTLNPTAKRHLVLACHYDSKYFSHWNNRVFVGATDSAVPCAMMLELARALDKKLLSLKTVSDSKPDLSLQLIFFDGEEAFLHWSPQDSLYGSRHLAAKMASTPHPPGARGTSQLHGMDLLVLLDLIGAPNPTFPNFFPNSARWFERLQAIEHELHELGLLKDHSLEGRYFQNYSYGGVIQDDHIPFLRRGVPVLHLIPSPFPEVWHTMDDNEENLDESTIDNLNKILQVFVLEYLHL

Row | IC50 | Compound
1 | 524 nM | CCCCC1C(c2ccccc2)=C(O)C(=O)N1CCCn1ccnc1 (stereo not drawn) [Compound 107, 5-Butyl-3-hydroxy-1-(3-imidazol-1-yl-propyl)-4-phenyl-1,5-dihydro-pyrrol-2-one]
2 | 1750 nM | CCCCCC1=C(O)C(=O)N(CCCn2ccnc2)C1c1ccc(C)o1 (stereo not drawn) [Compound 191, 3-Hydroxy-1-(3-imidazol-1-yl-propyl)-5-(5-methyl-furan-2-yl)-4-pentyl-1,5-dihydro-pyrrol-2-one]
3 | 1540 nM | CCCCCC1=C(O)C(=O)N(CCCn2ccnc2)C1c1ccccc1F (stereo not drawn) [Compound 217, 5-(2-Fluoro-phenyl)-3-hydroxy-1-(3-imidazol-1-yl-propyl)-4-pentyl-1,5-dihydro-pyrrol-2-one]
4 | 236 nM | CCCCCC1=C(O)C(=O)N(CCCn2ccnc2)C1c1cccc(Cl)c1 (stereo not drawn) [Compound 216, 5-(3-Chloro-phenyl)-3-hydroxy-1-(3-imidazol-1-yl-propyl)-4-pentyl-1,5-dihydro-pyrrol-2-one]
5 | 1910 nM | Cc1ccc(C2C(c3ccccc3)=C(O)C(=O)N2CCCn2ccnc2)cc1 (stereo not drawn) [Compound 77, 3-Hydroxy-1-(3-imidazol-1-yl-propyl)-4-phenyl-5-p-tolyl-1,5-dihydro-pyrrol-2-one]
6 | 613 nM | CCCCCC1=C(O)C(=O)N(CCCn2ccnc2)C1c1ccc(O)cc1 (stereo not drawn) [Compound 218, 3-Hydroxy-5-(4-hydroxy-phenyl)-1-(3-imidazol-1-yl-propyl)-4-pentyl-1,5-dihydro-pyrrol-2-one]

same assay, conditions: read-out: IC50

Row | Compound | IC50
7 | CCCC(=O)C1=C(O)C(=O)N(c2ccc3[nH]cnc3c2)C1c1c[nH]cn1 (stereo not drawn) [Compound 359, 1-(1H-Benzoimidazol-5-yl)-4-butyryl-3-hydroxy-5-(1H-imidazol-4-yl)-1,5-dihydro-pyrrol-2-one] | 7780 nM
8 | CC1=C(O)C(=O)N(c2ccc3[nH]cnc3c2)C1c1ccc2cccc(O)c2n1 (stereo not drawn) [Compound 319, 1-(1H-Benzoimidazol-5-yl)-3-hydroxy-5-(8-hydroxy-quinolin-2-yl)-4-methyl-1,5-dihydro-pyrrol-2-one] | 2830 nM
9 | O=C(O)CC1=C(O)C(=O)N(c2ccc3[nH]cnc3c2)C1c1ccnc2ccccc12 (stereo not drawn) [Compound 297, [1-(1H-Benzoimidazol-5-yl)-4-hydroxy-5-oxo-2-quinolin-4-yl-2,5-dihydro-1H-pyrrol-3-yl]-acetic acid] | 2380 nM
10 | CC(=O)C1=C(O)C(=O)N(c2ccc3[nH]cnc3c2)C1c1cc[nH]n1 (stereo not drawn) [Compound 444, 4-Acetyl-1-(1H-benzoimidazol-5-yl)-3-hydroxy-5-(1H-pyrazol-3-yl)-1,5-dihydro-pyrrol-2-one] | 6880 nM
11 | O=C1C(O)=C(c2cccc(O)c2)C(c2ccc(CO)o2)N1CCCn1ccnc1 (stereo not drawn) [Compound 17, 3-Hydroxy-5-(5-hydroxymethyl-furan-2-yl)-4-(3-hydroxy-phenyl)-1-(3-imidazol-1-yl-propyl)-1,5-dihydro-pyrrol-2-one] | 5800 nM
12 | CCC1=C(O)C(=O)N(c2ccc3[nH]cnc3c2)C1c1c(F)c(F)cc(F)c1F (stereo not drawn) [Compound 400, 1-(1H-Benzoimidazol-5-yl)-4-ethyl-3-hydroxy-5-(2,3,5,6-tetrafluoro-phenyl)-1,5-dihydro-pyrrol-2-one] | 6970 nM
13 | CCCC(=O)C1=C(O)C(=O)N(c2ccc3[nH]cnc3c2)C1CCC(=O)O (stereo not drawn) [Compound 324, 3-[1-(1H-Benzoimidazol-5-yl)-3-butyryl-4-hydroxy-5-oxo-2,5-dihydro-1H-pyrrol-2-yl]-propionic acid] | 6610 nM
14 | CC1=C(O)C(=O)N(c2ccc3nc[nH]c3c2)C1c1cccc(F)c1F (stereo not drawn) [Compound 259, 1-(1H-Benzoimidazol-5-yl)-5-(2,3-difluoro-phenyl)-3-hydroxy-4-methyl-1,5-dihydro-pyrrol-2-one] | 1300 nM
15 | CCC/C=C/C1C(CC)=C(O)C(=O)N1CCCn1ccnc1 (stereo not drawn) [Compound 222, 4-Ethyl-3-hydroxy-1-(3-imidazol-1-yl-propyl)-5-(pent-1-enyl)-1,5-dihydro-pyrrol-2-one] | 3100 nM
16 | O=C(C1=C(O)C(=O)N(c2ccc3[nH]cnc3c2)C1c1ccc(CO)o1)C1CCCCC1 (stereo not drawn) [Compound 303, 1-(1H-Benzoimidazol-5-yl)-4-cyclohexanecarbonyl-3-hydroxy-5-(5-hydroxymethyl-furan-2-yl)-1,5-dihydro-pyrrol-2-one] | 400 nM
17 | CC1=C(O)C(=O)N(c2ccc3[nH]cnc3c2)C1c1ccc2nonc2c1 (stereo not drawn) [Compound 351, 1-(1H-Benzoimidazol-5-yl)-5-(benzo[c][1,2,5]oxadiazol-5-yl)-3-hydroxy-4-methyl-1,5-dihydro-pyrrol-2-one] | 1210 nM
18 | CCCC(=O)C1=C(O)C(=O)N(c2ccc3[nH]cnc3c2)C1c1ccc(O)c(Br)c1 (stereo not drawn) [Compound 344, 1-(1H-Benzoimidazol-5-yl)-5-(3-bromo-4-hydroxy-phenyl)-4-butyryl-3-hydroxy-1,5-dihydro-pyrrol-2-one] | 400 nM
19 | CCC(C)C1C(F)=C(O)C(=O)N1CCCn1ccnc1 (stereo not drawn) [Compound 1, 5-sec-Butyl-4-fluoro-3-hydroxy-1-(3-imidazol-1-yl-propyl)-1,5-dihydro-pyrrol-2-one] | 3100 nM
20 | Cc1ccc(C2C(C(=O)c3cccs3)=C(O)C(=O)N2c2ccc3[nH]cnc3c2)o1 (stereo not drawn) [Compound 321, 1-(1H-Benzoimidazol-5-yl)-3-hydroxy-5-(5-methyl-furan-2-yl)-4-(thiophene-2-carbonyl)-1,5-dihydro-pyrrol-2-one] | 760 nM
21 | O=C1C(O)=C(c2ccc(O)cc2)C(c2ccccc2)N1CCCn1ccnc1 (stereo not drawn) [Compound 162, 3-Hydroxy-4-(4-hydroxy-phenyl)-1-(3-imidazol-1-yl-propyl)-5-phenyl-1,5-dihydro-pyrrol-2-one] | 40 nM
22 | O=C(C1=C(O)C(=O)N(c2ccc3[nH]cnc3c2)C1C1CCOC1)C1CC1 (stereo not drawn) [Compound 317, 1-(1H-Benzoimidazol-5-yl)-4-cyclopropanecarbonyl-3-hydroxy-5-(tetrahydro-furan-3-yl)-1,5-dihydro-pyrrol-2-one] | 7690 nM
23 | Cc1cccc(C2C(C(=O)C3CC3)=C(O)C(=O)N2c2ccc3[nH]cnc3c2)n1 (stereo not drawn) [Compound 316, 1-(1H-Benzoimidazol-5-yl)-4-cyclopropanecarbonyl-3-hydroxy-5-(6-methyl-pyridin-2-yl)-1,5-dihydro-pyrrol-2-one] | 580 nM
24 | CCC1C(c2ccccc2)=C(O)C(=O)N1CCCn1ccnc1 (stereo not drawn) [Compound 108, 5-Ethyl-3-hydroxy-1-(3-imidazol-1-yl-propyl)-4-phenyl-1,5-dihydro-pyrrol-2-one] | 400 nM
25 | Cc1ccc(C2C(c3ccccc3)=C(O)C(=O)N2CCCn2ccnc2)cc1 (stereo not drawn) [Compound 77, 3-Hydroxy-1-(3-imidazol-1-yl-propyl)-4-phenyl-5-p-tolyl-1,5-dihydro-pyrrol-2-one] | 40 nM
26 | O=C(C1=C(O)C(=O)N(c2ccc3[nH]cnc3c2)C1c1ccnc2ccccc12)C1CCCCC1 (stereo not drawn) [Compound 293, 1-(1H-Benzoimidazol-5-yl)-4-cyclohexanecarbonyl-3-hydroxy-5-quinolin-4-yl-1,5-dihydro-pyrrol-2-one] | 220 nM
27 | O=C1C(O)=C(c2cccc(O)c2)C(C(O)CO)N1CCCn1ccnc1 (stereo not drawn) [Compound 9, 5-(1,2-Dihydroxy-ethyl)-3-hydroxy-4-(3-hydroxy-phenyl)-1-(3-imidazol-1-yl-propyl)-1,5-dihydro-pyrrol-2-one] | 2200 nM

The remaining lines, values ahead:

Row | IC50 | Compound
28 | 40 nM | CCCCC1C(c2ccccc2)=C(O)C(=O)N1CCCn1ccnc1 (stereo not drawn) [Compound 107, 5-Butyl-3-hydroxy-1-(3-imidazol-1-yl-propyl)-4-phenyl-1,5-dihydro-pyrrol-2-one]
29 | 40 nM | CCCCCC1=C(O)C(=O)N(CCCn2ccnc2)C1c1ccc(C)o1 (stereo not drawn) [Compound 191, 3-Hydroxy-1-(3-imidazol-1-yl-propyl)-5-(5-methyl-furan-2-yl)-4-pentyl-1,5-dihydro-pyrrol-2-one]
30 | 2200 nM | CCCCCC1=C(O)C(=O)N(CCCn2ccnc2)C1c1ncc[nH]1 (stereo not drawn) [Compound 205, 3-Hydroxy-5-(1H-imidazol-2-yl)-1-(3-imidazol-1-yl-propyl)-4-pentyl-1,5-dihydro-pyrrol-2-one]
31 | 4900 nM | CC(C)C1=C(O)C(=O)N(CCCn2ccnc2)C1c1ccncc1 (stereo not drawn) [Compound 70, 3-Hydroxy-1-(3-imidazol-1-yl-propyl)-4-isopropyl-5-pyridin-4-yl-1,5-dihydro-pyrrol-2-one]
32 | 40 nM | CCC1=C(O)C(=O)N(CCCn2ccnc2)C1c1cccc(Cl)c1 (stereo not drawn) [Compound 249, 5-(3-Chloro-phenyl)-4-ethyl-3-hydroxy-1-(3-imidazol-1-yl-propyl)-1,5-dihydro-pyrrol-2-one]
33 | 40 nM | CCCCCC1C(CC)=C(O)C(=O)N1CCCn1ccnc1 (stereo not drawn) [Compound 232, 4-Ethyl-3-hydroxy-1-(3-imidazol-1-yl-propyl)-5-pentyl-1,5-dihydro-pyrrol-2-one]
34 | 400 nM | CCCCCC1C(c2c[nH]c3ccccc23)=C(O)C(=O)N1CCCn1ccnc1 (stereo not drawn) [Compound 124, 3-Hydroxy-1-(3-imidazol-1-yl-propyl)-4-(1H-indol-3-yl)-5-pentyl-1,5-dihydro-pyrrol-2-one]
35 | 40 nM | CCCCCC1=C(O)C(=O)N(CCCn2ccnc2)C1c1ccccc1F (stereo not drawn) [Compound 217, 5-(2-Fluoro-phenyl)-3-hydroxy-1-(3-imidazol-1-yl-propyl)-4-pentyl-1,5-dihydro-pyrrol-2-one]
36 | 40 nM | CCCCCC1=C(O)C(=O)N(CCCn2ccnc2)C1c1ccc2[nH]ccc2c1 (stereo not drawn) [Compound 192, 3-Hydroxy-1-(3-imidazol-1-yl-propyl)-5-(1H-indol-5-yl)-4-pentyl-1,5-dihydro-pyrrol-2-one]
37 | 40 nM | CCCCCC1=C(O)C(=O)N(CCCn2ccnc2)C1c1cccc(Cl)c1 (stereo not drawn) [Compound 216, 5-(3-Chloro-phenyl)-3-hydroxy-1-(3-imidazol-1-yl-propyl)-4-pentyl-1,5-dihydro-pyrrol-2-one]
38 | 40 nM | CCCCCC1=C(O)C(=O)N(CCCn2ccnc2)C1c1ccc(O)cc1 (stereo not drawn) [Compound 218, 3-Hydroxy-5-(4-hydroxy-phenyl)-1-(3-imidazol-1-yl-propyl)-4-pentyl-1,5-dihydro-pyrrol-2-one]
39 | 400 nM | CCCC1C(c2cccc(O)c2)=C(O)C(=O)N1CCCn1ccnc1 (stereo not drawn) [Compound 7, 3-Hydroxy-4-(3-hydroxy-phenyl)-1-(3-imidazol-1-yl-propyl)-5-propyl-1,5-dihydro-pyrrol-2-one]
